Measurements as given in patent US7776844B2, “N-(phosphonoalkyl)-amino acids, derivatives thereof and compositions and methods of use” (priority 2006, dated 2010).
Like-named read-outs stand apart in the source and are kept apart here.

Experiments:
chronic plaque psoriasis = experiment: Topical treatment of chronic plaque psoriasis lesion, clinical evaluation; assay type: in vivo; conditions: Homo sapiens, read-out: improvement in contrast to untreated or vehicle control, clinical evaluation
Protocol: (§1) The present invention will now be described in more detail with reference to the following non-limiting examples. In the initial tests for comparative studies, a control vehicle was always included. It was discovered that all the vehicle controls gave the same results as that of the untreated skin sites; no detectable effects of the controls have been found as judged by clinical evaluation.
(§2) For subjective disorders such as pain, itch or the like, the therapeutic effects were evaluated or judged by the subjects or patients; for example, if the pain or itch had disappeared within hours or days. For other detectable symptoms or syndromes, the therapeutic effects or improvements were evaluated or judged by medical professionals.
(§3) A subject had chronic plaque psoriasis with erythema, moderately thick and silvery scales. The subject topically applied twice daily the above white cream containing 5% N-(phosphonomethyl)-glycine ethyl ester to one psoriatic lesion for two weeks. At the end of two weeks, the erythema and silvery scales improved substantially, and the treated skin had 50% improvement in contrast to the untreated or vehicle control as judged by clinical evaluation.
as §3, with “10% N-(phosphonomethyl)-L-proline” for “5% N-(phosphonomethyl)-glycine ethyl ester”, “improved very” for “improved”, “75%” for “50%”
as §3, with “N-(phosphonomethyl)-glycine propyl” for “N-(phosphonomethyl)-glycine ethyl”, “improved very” for “improved”, “had 75%” for “had 50%”
as §3, with “N-(phosphonomethyl)-glycine isopropyl” for “N-(phosphonomethyl)-glycine ethyl”, “for a week.” for “for two weeks.”, “of one week,” for “of two weeks,”
as §3, with “8% N-(phosphonomethyl)-glycinamide” for “5% N-(phosphonomethyl)-glycine ethyl ester”, “three” for “two”, “disappeared almost completely,” for “improved substantially,”, “90%” for “50%”
as §3, with “N-(phosphonomethyl)-L-tyrosine” for “N-(phosphonomethyl)-glycine”, “noticeably” for “substantially,”, “25%” for “50%”
A subject had chronic plaque psoriasis with erythema, moderately thick and silvery scales. The subject topically applied twice daily the above white cream containing 10% N-(phosphonomethyl)-D-4-hydroxyphenylglycine to one psoriatic lesion for two weeks. […]

hyperpigmented dark skin = experiment: Topical skin lightening of hyperpigmented dark skin, clinical evaluation; assay type: in vivo, human
Protocol: as §1, §2
A subject who had hyperpigmented dark skin, topically applied 5% N-(phosphonomethyl)-DL-asparagine cream prepared according to Example 7 to an involved skin site twice daily for four weeks. […] The treated site was 25% lighter in skin color in contrast to the untreated or vehicle control as judged by clinical evaluation. After four weeks of topical application, the treated site had substantial reduction in skin pigmentation. The treated site was 50% lighter in contrast to the untreated or vehicle control in skin color as judged by clinical evaluation.
A subject who had hyperpigmented dark skin, topically applied the above 5% N-(phosphonomethyl)-DL-asparagine solution to an involved skin site once every other day with occlusion for ten days. […] The treated site was 25% lighter in skin color as judged by clinical evaluation. After ten days of topical application, the treated site had substantial reduction in skin pigmentation. The treated site was 50% lighter in skin color in contrast to the untreated or vehicle control as judged by clinical evaluation.
(§4) A subject who had hyperpigmented dark skin, topically applied the above 5% N-(phosphonomethyl)-creatine solution to an involved skin site once every other day with occlusion for two weeks. […] The treated site was 25% lighter in skin color in contrast to the untreated or vehicle control as judged by clinical evaluation. After two weeks of topical application, the treated site had very substantial reduction in skin pigmentation. The treated site was 75% lighter in skin color in contrast to the untreated or vehicle control as judged by clinical evaluation.
as §4, with “N-(phosphonomethyl)-glycinamide” for “N-(phosphonomethyl)-creatine”, “had” for “had very”, “50%” for “75%”
A subject who had hyperpigmented dark skin, topically applied the above 5% N-(phosphonomethyl)-L-glutamine solution to an involved skin site once every other day with occlusion for two weeks. After two weeks of topical application, the treated site had substantial reduction in skin pigmentation. The treated site had 50% lighter in skin color in contrast to the untreated or vehicle control as judged by clinical evaluation.

[1] = system: X-linked ichthyosis with severe dry skin; experiment: Topical treatment of X-linked ichthyosis / severe dry skin, clinical evaluation; assay type: in vivo; conditions: Homo sapiens, read-out: improvement in contrast to untreated or vehicle control, clinical evaluation
Excerpt: For example, human subjects having severe dry skin or ichthyosis, topically applied 1%-5% N-(phosphonomethyl)-glycine creams to lesions for 2 to 3 weeks. After 2 to 3 weeks of topical application, the thick and scaly skin disappeared and the skin became smooth and normal in appearance. Clinical evaluation was judged to be 90% to 100% improvement compared to the untreated condition or when using a vehicle control.
as §1, §2
N-(phosphonomethyl)-glycine (5 g) was suspended in water (30 ml) and propylene glycol (10 ml), and concentrated ammonium hydroxide (2 ml) was added with stirring. The suspension became a clear solution, and was mixed with hydrophilic ointment (oil-in-water emulsion, 53 g). The white cream thus formulated had pH 3.8 and contained 5% N-(phosphonomethyl)-glycine. A subject who had X-linked ichthyosis with severe dry skin, having thick and rough skin with adherent scales, topically applied the above 5% N-(phosphonomethyl)-glycine cream to an involved skin site twice daily for two weeks. After one week of topical application, the adherent scales disappeared, and the skin became smooth and had 50% improvement in contrast to the untreated or vehicle control as judged by clinical evaluation. After two weeks of topical application, the treated skin became normal in appearance, and had 100% improvement in contrast to the untreated or vehicle control as judged by clinical evaluation.
A subject who had X-linked ichthyosis with severe dry skin, having thick and rough skin with adherent scales, topically applied the above 5% N-(phosphonomethyl)imino-diacetic acid cream to an involved skin site twice daily for two weeks. After one week of topical application, most adherent scales disappeared and the skin had 50% improvement in contrast to the untreated or vehicle control as judged by clinical evaluation. After two weeks of topical application, the scales disappeared completely and the treated skin became smooth, and had 90% improvement in contrast to the untreated or vehicle control as judged by clinical evaluation.
A subject who had X-linked ichthyosis with severe dry skin, having thick and rough skin with adherent scales, topically applied the above 5% N-(phosphonomethyl)-L-tyrosine cream to an involved skin site twice daily for 12 days. After 12 days of topical application, most adherent scales disappeared and the skin became smooth, and had 75% improvement in contrast to the untreated or vehicle control as judged by clinical evaluation.
A subject who had X-linked ichthyosis having thick and rough skin with adherent scales, topically applied the 5% N-(phosphonomethyl)-DL-asparagine cream to an involved skin site twice daily for three weeks. After one week of topical application, most adherent scales disappeared and the treated site appeared smooth. The skin had 75% improvement in contrast to the untreated or vehicle control as judged by clinical evaluation. After three weeks of topical application, the scales disappeared completely and the treated site felt smooth and normal in appearance. The skin had 100% improvement in contrast to the untreated or vehicle control as judged by clinical evaluation. […]

itchy eczema = experiment: Topical relief of itch in itchy eczema, judged by subject; assay type: in vivo, human; conditions: for therapeutic evaluation, effective for immediate relief of itch: single topical application
Protocol: as §1, §2
A subject, having itchy eczema on their right thigh, topically applied the above 8% N-(phosphonomethyl)-L-proline ethyl ester cream. […] Therapeutic evaluation was judged to be 100% effective in contrast to the untreated or vehicle control for immediate relief of itch.
A subject, having itchy eczema on their left leg, topically applied 7% N-(phosphonomethyl)-creatine cream prepared according to Example 17. […] Therapeutic evaluation was judged to be 100% effective in contrast to the untreated or vehicle control for immediate relief of itch.
A subject, having itchy eczema on their left thigh, topically applied the above 10% N-(phosphonomethyl)-glutamine. […] Therapeutic evaluation was judged to be 100% effective in contrast to the untreated or vehicle control for immediate relief of itch.

[2] = 5% solution once every other day with occlusion, after seven days
[3] = 5% solution once every other day with occlusion, after two weeks
[4] = 168 h, 5% cream twice daily, after one week
[5] = 336 h, 5% cream twice daily, end of two weeks

Compound: CCCOC(=O)CNCP(=O)(O)O [N-(phosphonomethyl)-glycine propyl ester]
- inhibition in vivo at 5 % (chronic plaque psoriasis; 336 h): 75%

Compound: NCC(=O)NCP(=O)(O)O [N-(phosphonomethyl)-glycinamide]
- treated site lighter in skin color, clinical evaluation (hyperpigmented dark skin; [2]): 25%
- treated site lighter in skin color, clinical evaluation (hyperpigmented dark skin; [3]): 50%
- inhibition in vivo at 5 % ([1]; 168 h): 75%
- inhibition in vivo at 5 % ([1]; 504 h): 100%
- inhibition in vivo at 8 % (chronic plaque psoriasis; 504 h): 90%

Compound: O=C(O)CC[C@H](NCP(=O)(O)O)C(=O)O [N-(phosphonomethyl)-L-glutamic acid]
- inhibition in vivo at 8 % (chronic plaque psoriasis; 336 h, 8% cream twice daily, end of two weeks): 50%

Compound: O=C(O)[C@H](NCP(=O)(O)O)c1ccc(O)cc1 [N-(phosphonomethyl)-D-4-hydroxyphenylglycine]
- inhibition in vivo at 10 % (chronic plaque psoriasis; 336 h, 10% cream twice daily, end of two weeks): 70%

Compound: NC(=O)CC(NCP(=O)(O)O)C(=O)O (racemic) [N-(phosphonomethyl)-DL-asparagine]
- treated site lighter in skin color, clinical evaluation (hyperpigmented dark skin; 5% cream twice daily, after four weeks): 50%
- treated site lighter in skin color, clinical evaluation (hyperpigmented dark skin; 5% cream twice daily, after two weeks): 25%
- treated site lighter in skin color, clinical evaluation (hyperpigmented dark skin; [2]): 25%
- treated site lighter in skin color, clinical evaluation (hyperpigmented dark skin; 5% solution once every other day with occlusion, after ten days): 50%
- inhibition in vivo at 5 % ([1]; 168 h): 75%
- inhibition in vivo at 5 % ([1]; 504 h): 100%

Compound: CCOC(=O)[C@@H]1CCCN1CP(=O)(O)O [N-(phosphonomethyl)-L-proline ethyl ester]
- time the treated skin did not itch after application (itchy eczema; 8% cream): 8 h
- time until itch disappeared after topical application (itchy eczema; 8% cream): within a few minutes
- therapeutic evaluation, effective for immediate relief of itch (itchy eczema; 8% cream): 100%

Compound: O=C(O)CNCP(=O)(O)O [N-(phosphonomethyl)-glycine]
- inhibition in vivo at 5 % [1, 4]: 50%
- inhibition in vivo at 5 % ([1]; 336 h, 5% cream twice daily, after two weeks): 100%

Compound: O=C(O)[C@@H]1CCCN1CP(=O)(O)O [N-(phosphonomethyl)-L-proline]
- inhibition in vivo at 10 % (chronic plaque psoriasis; 336 h): 75%

Compound: NC(=O)CC[C@H](NCP(=O)(O)O)C(=O)O [N-(phosphonomethyl)-L-glutamine]
- treated site lighter in skin color, clinical evaluation (hyperpigmented dark skin; [3]): 50%
- time the treated skin did not itch after application (itchy eczema; 10% cream): 8 h
- time until itch disappeared after topical application (itchy eczema; 10% cream): within a few minutes
- therapeutic evaluation, effective for immediate relief of itch (itchy eczema; 10% cream): 100%
- inhibition in vivo at 5 % ([1]; 336 h, 5% solution once every other day (occlusion not stated), after two weeks): 75%
- inhibition in vivo at 5 % ([1]; 504 h, 5% solution once every other day (occlusion not stated), after three weeks): 100%

Compound: CCOC(=O)[C@H](Cc1ccc(O)cc1)NCP(=O)(O)O [N-(phosphonomethyl)-L-tyrosine ethyl ester]
- inhibition in vivo at 5 % [1, 4]: 25%
- inhibition in vivo at 5 % (chronic plaque psoriasis; [5]): 25%

Compound: CCOC(=O)CNCP(=O)(O)O [N-(phosphonomethyl)-glycine ethyl ester]
- inhibition in vivo at 5 % (chronic plaque psoriasis; 336 h): 50%

Compound: O=C(O)CN(CC(=O)O)CP(=O)(O)O [N-(phosphonomethyl)imino-diacetic acid]
- inhibition in vivo at 5 % ([1]; 168 h): 50%
- inhibition in vivo at 5 % ([1]; 336 h): 90%

Compound: O=C(O)[C@H](Cc1ccc(O)cc1)NCP(=O)(O)O [N-(phosphonomethyl)-L-tyrosine]
- inhibition in vivo at 5 % ([1]; 288 h, 5% cream twice daily, after 12 days): 75%

Compound: CN(CC(=O)O)C(=N)NCP(=O)(O)O [N-(phosphonomethyl)-creatine]
- treated site lighter in skin color, clinical evaluation (hyperpigmented dark skin; [2]): 25%
- treated site lighter in skin color, clinical evaluation (hyperpigmented dark skin; [3]): 75%
- time the treated skin did not itch after application (itchy eczema; 7% cream): 8 h
- time until itch disappeared after topical application (itchy eczema; 7% cream): within a few minutes
- therapeutic evaluation, effective for immediate relief of itch (itchy eczema; 7% cream): 100%
- inhibition in vivo at 5 % ([1]; 240 h): 50%
- inhibition in vivo at 5 % ([1]; 336 h): 100%
- inhibition in vivo at 5 % (chronic plaque psoriasis; 336 h): 50%

Compound: CC(C)OC(=O)CNCP(=O)(O)O [N-(phosphonomethyl)-glycine isopropyl ester]
- inhibition in vivo at 5 % (chronic plaque psoriasis; 168 h): 50%

Compound: O=P(O)(O)CNCCc1ccc(O)cc1 [N-(phosphonomethyl)-tyramine]
- inhibition in vivo at 5 % ([1]; 168 h, 5% solution once every other day under occlusion, after one week): 75%
- inhibition in vivo at 5 % (chronic plaque psoriasis; [5]): 50%
